Experimental data reported in patent US20210045385A1, “PYRIDAZINONE-SUBSTITUTED KETOXIMES AS HERBICIDES” (FMC Corporation, priority 2018, published 2021).

Assays:
Format in all cases: in vivo
[1] = system: barnyardgrass (Echinochloa crus-galli); test: Test B flooded paddy test, visual plant response rating; settings: 250 g ai/ha, Flood, applied to paddy water, 2-leaf stage, evaluated after 13 to 15 days
Protocol: (§1) Plant species in the flooded paddy test selected from rice (Oryza sativa), sedge, umbrella (small-flower umbrella sedge, Cyperus difformis), ducksalad (Heteranhera limosa), and barnyardgrass (Echinochloa crus-galli) were grown to the 2-leaf stage for testing. At time of treatment, test pots were flooded to 3 cm above the soil surface treated by application of test compounds directly to the paddy water, and then maintained at that water depth for the duration of the test. Treated plants and controls were maintained in a greenhouse for 13 to 15 days, after which time all species were compared to controls and visually evaluated. […] A dash (-) response means no test result.

[2] = system: ducksalad (Heteranhera limosa); test: as above; settings: 250 g ai/ha, Flood, applied to paddy water, 2-leaf stage, evaluated after 13 to 15 days
Protocol: as §1

[3] = system: sedge, umbrella (small-flower umbrella sedge, Cyperus difformis); test: as above; settings: 250 g ai/ha, Flood, applied to paddy water, 2-leaf stage, evaluated after 13 to 15 days
Protocol: as §1

rice (Oryza sativa) = test: as above; settings: 250 g ai/ha, Flood, applied to paddy water, 2-leaf stage, evaluated after 13 to 15 days
Protocol: as §1

[4] = system: barnyardgrass (Echinochloa crus-galli); test: Test A preemergence, visual plant response rating; settings: approx. 10 days
Text: (§2) Seeds of plant species selected from barnyardgrass (Echinochloa crus-galli), kochia (Kochia scoparia), ragweed (common ragweed, Ambrosia elatior), Italian ryegrass (Lolium multiflorum), foxtail, giant (giant foxtail, Setaria faberii), foxtail, green (green foxtail, Setaria viridis), and pigweed (Amaranthus retroflexus) were planted into a blend of loam soil and sand and treated preemergence with a directed soil spray using test chemicals formulated in a non-phytotoxic solvent mixture which included a surfactant.
(§3) At the same time, plants selected from these weed species and also wheat (Triticum aestivum), corn (Zea mays), blackgrass (Alopecurus myosuroides), and galium (catchweed bedstraw, Galium aparine) were planted in pots containing the same blend of loam soil and sand and treated with postemergence applications of test chemicals formulated in the same manner. Plants ranged in height from 2 to 10 cm and were in the one- to two-leaf stage for the postemergence treatment. Treated plants and untreated controls were maintained in a greenhouse for approximately 10 days, after which time all treated plants were compared to untreated controls and visually evaluated for injury. Plant response ratings, summarized in Table A, are based on a 0 to 100 scale where 0 is no effect and 100 is complete control. A dash (-) response means no test result.

kochia (Kochia scoparia) [5] = test: Test A preemergence, visual plant response rating; settings: approx. 10 days
Text: as §2, §3

[6] = system: foxtail, giant (giant foxtail, Setaria faberii); test: Test A preemergence, visual plant response rating; settings: approx. 10 days
Text: as §2, §3

[7] = system: ragweed (common ragweed, Ambrosia elatior); test: Test A preemergence, visual plant response rating; settings: approx. 10 days
Text: as §2, §3

[8] = system: pigweed (Amaranthus retroflexus); test: Test A preemergence, visual plant response rating; settings: approx. 10 days
Text: as §2, §3

[9] = system: Italian ryegrass (Lolium multiflorum); test: Test A preemergence, visual plant response rating; settings: approx. 10 days
Text: as §2, §3

[10] = system: barnyardgrass (Echinochloa crus-galli); test: Test A postemergence, visual plant response rating; settings: for Barnyardgrass plant response rating (0 to 100 scale): 500 g ai/ha, postemergence, 0 is no effect, 100 is complete control; for Barnyardgrass plant response rating: Postemergence, 125 g ai/ha, 0 to 100 scale (0 no effect, 100 complete control)
Text: as §2, §3

kochia (Kochia scoparia) [11] = test: Test A postemergence, visual plant response rating; settings: for Kochia plant response rating (0 to 100 scale): 500 g ai/ha, postemergence, 0 is no effect, 100 is complete control; for Kochia plant response rating: Postemergence, 125 g ai/ha, 0 to 100 scale (0 no effect, 100 complete control)
Text: as §2, §3

[12] = system: blackgrass (Alopecurus myosuroides); test: Test A postemergence, visual plant response rating; settings: for Blackgrass plant response rating (0 to 100 scale): 500 g ai/ha, postemergence, 0 is no effect, 100 is complete control; for Blackgrass plant response rating: Postemergence, 125 g ai/ha, 0 to 100 scale (0 no effect, 100 complete control)
Text: as §2, §3

[13] = system: wheat (Triticum aestivum); test: Test A postemergence, visual plant response rating; settings: for Wheat plant response rating (0 to 100 scale): 500 g ai/ha, postemergence, 0 is no effect, 100 is complete control; for Wheat plant response rating: Postemergence, 125 g ai/ha, 0 to 100 scale (0 no effect, 100 complete control)
Text: as §2, §3

[14] = system: foxtail, giant (giant foxtail, Setaria faberii); test: Test A postemergence, visual plant response rating; settings: for Foxtail, Giant plant response rating (0 to 100 scale): 500 g ai/ha, postemergence, 0 is no effect, 100 is complete control; for Foxtail, Giant plant response rating: Postemergence, 125 g ai/ha, 0 to 100 scale (0 no effect, 100 complete control)
Text: as §2, §3

[15] = system: galium (catchweed bedstraw, Galium aparine); test: Test A postemergence, visual plant response rating; settings: for Galium plant response rating (0 to 100 scale): 500 g ai/ha, postemergence, 0 is no effect, 100 is complete control; for Galium plant response rating: Postemergence, 125 g ai/ha, 0 to 100 scale (0 no effect, 100 complete control)
Text: as §2, §3

[16] = system: ragweed (common ragweed, Ambrosia elatior); test: Test A postemergence, visual plant response rating; settings: for Ragweed plant response rating (0 to 100 scale): 500 g ai/ha, postemergence, 0 is no effect, 100 is complete control; for Ragweed plant response rating: Postemergence, 125 g ai/ha, 0 to 100 scale (0 no effect, 100 complete control)
Text: as §2, §3

[17] = system: pigweed (Amaranthus retroflexus); test: Test A postemergence, visual plant response rating; settings: for Pigweed plant response rating (0 to 100 scale): 500 g ai/ha, postemergence, 0 is no effect, 100 is complete control; for Pigweed plant response rating: Postemergence, 125 g ai/ha, 0 to 100 scale (0 no effect, 100 complete control)
Text: as §2, §3

corn (Zea mays) = test: Test A postemergence, visual plant response rating; settings: for Corn plant response rating (0 to 100 scale): 500 g ai/ha, postemergence, 0 is no effect, 100 is complete control; for Corn plant response rating: Postemergence, 125 g ai/ha, 0 to 100 scale (0 no effect, 100 complete control)
Text: as §2, §3

[18] = system: Italian ryegrass (Lolium multiflorum); test: Test A postemergence, visual plant response rating; settings: for Ryegrass, Italian plant response rating (0 to 100 scale): 500 g ai/ha, postemergence, 0 is no effect, 100 is complete control; for Ryegrass, Italian plant response rating: Postemergence, 125 g ai/ha, 0 to 100 scale (0 no effect, 100 complete control)
Text: as §2, §3

SMILES | Plant response rating, Barnyardgrass (0 to 100 scale, 0 is no effect, 100 is complete control) [1] | Plant response rating, Ducksalad (0 to 100 scale, 0 is no effect, 100 is complete control) [2] | Plant response rating, Sedge, Umbrella (0 to 100 scale, 0 is no effect, 100 is complete control) [3] | Plant response rating, Rice (0 to 100 scale, 0 is no effect, 100 is complete control) (rice (Oryza sativa)) | Barnyardgrass plant response rating (0 to 100 scale) ([4]; 125 g ai/ha Preemergence) | Barnyardgrass plant response rating (0 to 100 scale) ([4]; 500 g ai/ha Preemergence) | Kochia plant response rating (0 to 100 scale) (kochia (Kochia scoparia) [5]; 125 g ai/ha Preemergence) | Kochia plant response rating (0 to 100 scale) (kochia (Kochia scoparia) [5]; 500 g ai/ha Preemergence) | Foxtail, Giant plant response rating (0 to 100 scale) ([6]; 125 g ai/ha Preemergence) | Foxtail, Giant plant response rating (0 to 100 scale) ([6]; 500 g ai/ha Preemergence) | Ragweed plant response rating (0 to 100 scale) ([7]; 125 g ai/ha Preemergence) | Ragweed plant response rating (0 to 100 scale) ([7]; 500 g ai/ha Preemergence) | Pigweed plant response rating (0 to 100 scale) ([8]; 125 g ai/ha Preemergence) | Pigweed plant response rating (0 to 100 scale) ([8]; 500 g ai/ha Preemergence) | Ryegrass, Italian plant response rating (0 to 100 scale) ([9]; 125 g ai/ha Preemergence) | Ryegrass, Italian plant response rating (0 to 100 scale) ([9]; 500 g ai/ha Preemergence) | Barnyardgrass plant response rating (0 to 100 scale) [10] | Barnyardgrass plant response rating [10] | Kochia plant response rating (0 to 100 scale) (kochia (Kochia scoparia) [11]) | Kochia plant response rating (kochia (Kochia scoparia) [11]) | also measured
C#CCn1nc(C)c(O)c(C(=NOC)c2cccc(Cl)c2)c1=O (mixture of isomers) [Compound 3] | 0 | 0 | 0 | 0 | 0 | 20 | 10 | 10 | 0 | 10 | 10 | 10 | 0 | 10 | 30 | 70 | 40 | 0 | 50 | 10 | Blackgrass plant response rating (0 to 100 scale) [12]: 50; Blackgrass plant response rating [12]: 10; Wheat plant response rating (0 to 100 scale) [13]: 10; Wheat plant response rating [13]: 0; Foxtail, Giant plant response rating (0 to 100 scale) [14]: 40; Foxtail, Giant plant response rating [14]: 10; Galium plant response rating (0 to 100 scale) [15]: 70; Galium plant response rating [15]: 30; Ragweed plant response rating (0 to 100 scale) [16]: 60; Ragweed plant response rating [16]: 20; Pigweed plant response rating (0 to 100 scale) [17]: 50; Pigweed plant response rating [17]: 20; Corn plant response rating (0 to 100 scale) (corn (Zea mays)): 20; Corn plant response rating (corn (Zea mays)): 0; Ryegrass, Italian plant response rating (0 to 100 scale) [18]: 80; Ryegrass, Italian plant response rating [18]: 20
CON=C(c1cccc(Cl)c1)c1c(O)c(C)nn(CC2CC2)c1=O (mixture of isomers) [Compound 4] | 0 | 0 | 0 | 0 | 20 | 70 | 0 | 0 | 0 | 50 | 0 | 0 | 0 | 0 | 0 | 30 | 0 | 0 | 0 | 0 | Blackgrass plant response rating (0 to 100 scale) [12]: 40; Blackgrass plant response rating [12]: 0; Wheat plant response rating (0 to 100 scale) [13]: 0; Wheat plant response rating [13]: 0; Foxtail, Giant plant response rating (0 to 100 scale) [14]: 0; Foxtail, Giant plant response rating [14]: 0; Galium plant response rating (0 to 100 scale) [15]: 0; Galium plant response rating [15]: 0; Ragweed plant response rating (0 to 100 scale) [16]: 0; Ragweed plant response rating [16]: 0; Pigweed plant response rating (0 to 100 scale) [17]: 0; Pigweed plant response rating [17]: 0; Corn plant response rating (0 to 100 scale) (corn (Zea mays)): 0; Corn plant response rating (corn (Zea mays)): 0; Ryegrass, Italian plant response rating (0 to 100 scale) [18]: 0; Ryegrass, Italian plant response rating [18]: 0
